According to the NIST ThermoML archive (doi:10.1016/j.jct.2013.10.028):
± gives the expanded uncertainty stated by the source.

Columns and labels:
[1] = molar heat capacity at constant pressure; details: 100 kPa, Liquid, Large sample (1 g) DSC
[2] = molar heat capacity at constant pressure; wn = mass fraction of the nth substance listed; details: 100 kPa, Liquid, Large sample (1 g) DSC

O [water]
[1]
Details	molar heat capacity at constant pressure [J/K/mol]
308.15 K	75.47 ± 3.2
313.15 K	75.43 ± 3.2
318.15 K	75.41 ± 3.2
323.15 K	75.43 ± 3.2
328.15 K	75.45 ± 3.2
333.15 K	75.47 ± 3.2
338.15 K	75.47 ± 3.2
343.15 K	75.47 ± 3.2

[Cl-].[Li+] [lithium chloride] + O
molar heat capacity at constant pressure [J/K/mol], [2]
Details	308.15 K	313.15 K	318.15 K	323.15 K	328.15 K	333.15 K	338.15 K	343.15 K
w1 = 0.15	68.89 ± 2.9	68.97 ± 2.9	69.06 ± 2.9	69.18 ± 2.9	69.28 ± 2.9	69.36 ± 2.9	69.36 ± 2.9	69.42 ± 2.9
w1 = 0.2001	67.4 ± 2.9	67.55 ± 2.9	67.65 ± 2.9	67.79 ± 2.9	67.93 ± 2.9	68.02 ± 2.9	68.08 ± 2.9	68.06 ± 2.9
w1 = 0.2501	66.11 ± 2.8	66.26 ± 2.8	66.43 ± 2.8	66.6 ± 2.8	66.76 ± 2.8	66.93 ± 2.8	67.02 ± 2.8	67.12 ± 2.8
w1 = 0.3	65.14 ± 2.8	65.44 ± 2.8	65.66 ± 2.8	65.9 ± 2.8	66.14 ± 2.8	66.34 ± 2.8	66.49 ± 2.8	66.58 ± 2.8
w1 = 0.3499	64.84 ± 2.8	65.16 ± 2.8	65.4 ± 2.8	65.65 ± 2.8	65.92 ± 2.8	66.15 ± 2.8	66.33 ± 2.8	66.49 ± 2.8
w1 = 0.3998	64.57 ± 2.7	64.89 ± 2.8	65.17 ± 2.8	65.48 ± 2.8	65.78 ± 2.8	66.04 ± 2.8	66.25 ± 2.8	66.39 ± 2.8
w1 = 0.4502	64.39 ± 2.7	64.76 ± 2.7	65.05 ± 2.8	65.37 ± 2.8	65.68 ± 2.8	65.95 ± 2.8	66.17 ± 2.8	66.34 ± 2.8
